The values below come from patent US8101768B2, “Cyclic amine compound and pest control agent” (Nippon Soda Co., Ltd., priority 2004, dated 2012).

A word on the melting point: it is the temperature, or range, at which the solid turns liquid.

Compound `CC(=O)Oc1cc(C(F)(F)F)ccc1OC1CCN(c2ccc(C(F)(F)F)cn2)CC1` [1-167, 4-[2-acetoxy-4-(trifluoromethyl)phenoxy]-1-[5-(trifluoromethyl)-2-pyridyl]piperidine] registered a melting point of 85 to 95 °C.
